The values below come from patent US9250249B2, “Autophagy and phospholipidosis pathway assays” (Enzo Biochem, Inc., priority 2008, dated 2016).

Like-named read-outs stand apart in the source and are kept apart here.

Data set [1] has as its system U2OS human osteosarcoma cells. Nature of the data set: Fluorescence microscopy-based lysosomal perturbation assay (Dye 1 staining). Format: cell-based. As to conditions: U2OS cells pre-treated with drug (chloroquine 8-64 μM, 18 hours), Dye 1 15 min. As to the method: U2OS human osteosarcoma cells were maintained in McCoy's 5a modified medium supplemented with 10% FBS and 100 units/ml penicillin/streptomycin (Invitrogen, Carlsbad, Calif.) in a humidified 37° C., 5% CO2 environment. Cells were allowed to proliferate on glass slides or were seeded into 96-well plates at a density of 2×10^4 cells/well and allowed to attach overnight. The cells were plated such that at the end of the experiment, they reached about 90% confluency.
The fluorescence-based lysosomal perturbation assay was established by first incubating cells cultivated on glass slides for 4-24 hours with chloroquine (8-64 μM final concentration), a well known phospholipidosis-inducing agent. Control cells were incubated with 0.1% (v/v) dimethyl sulfoxide (DMSO), which served as the vehicle control. Cells were then briefly (15 min) incubated with a combination of Dye 1 and Hoechst 33342 dye. Following incubation, cells grown on glass microscope slides were covered with glass coverslips, sealed with nail polish and observed using an inverted Axiovert 200M microscope (Carl Zeiss, Inc., Oberkochen, Germany). Images were acquired with a 63× objective lens (Zeiss).
Cells were subsequently stained with Dye 1 for 15 minutes. Nuclei were counter-stained with Hoechst 33342 dye. In FIG. 1, control U2OS cells are shown in (A), cells pre-treated for 18 hours with 8 μM chloroquine in (B), cells pre-treated for 18 hours with 16 μM chloroquine in (C) and cells pre-treated for 18 hours with 64 μM chloroquine in (D). This staining pattern was also consistently observed for other drugs that are known to induce phospholipidosis, such as chlorpromazine, fluoxetine, pimozide and verapamil (further described in Example 4). […] The ability of Dye 1 to detect vacuole accumulation in the described in vitro cell culture model mimicking Fabry disease strongly supports the present invention and its suitability for the detection of genetically derived lysosomal storage diseases.

The subject of data set [2] is U2OS cells. The experiment in a line: Fluorescence microplate-based lysosomal perturbation assay (Dye 1 fluorescence), incl. ICCB library screen. Particulars: for Relative Lyso Stain (intensity of Dye 1 fluorescence of treated cells compared to the untreated control): 18 hours, single concentration per compound; for vacuolation / expansion of lysosomal compartment detected by Dye 1 assay: Dye 1 stained post drug incubation; for hit call in ICCB library screen (Dye 1 accumulation): ICCB known bioactives library screen.
Protocol: In order to increase throughput and reduce handling time, the fluorescence microscopy-based lysosomal perturbation assay was scaled up to a 96-well microplate plate assay format and analyzed using a fluorescence microplate reader.
(§1) Fluorescence intensity of the cells cultured on the 96-well plates was measured using a FLUOstar OPTIMA Multifunction Microplate Reader (BMG LabTech, Offenburg, Germany). […] Fluorescence intensity was expressed as percentage of the vehicle control value.
(§2) In the preliminary screen, test agents were employed at a single dose in an effort to identify any potential lysosome-modifying agents.

For data set [3], the system named is U2OS cells. The experiment in a line: Lipid-Tox fluorescent phospholipid analog-based phospholipidosis assay. In kind it is cell-based, human. Particulars: 24 hours co-incubation with Lipid-Tox dye and drug. As to the method: Many assays of phospholipidosis, including the Lipid-Tox assay (Invitrogen, Carlsbad, Calif.), are based upon co-incubating cells with a fluorescent phospholipid analog for an extended period of time, along with the drug or test agent being evaluated, and then monitoring signal generation in fixed and permeabilized cells. Dye 1 is not a fluorescent phospholipid analog, but instead is a cationic amphiphilic fluorophore tracer. Cells are incubated with the drug or test agent in isolation and then briefly treated with the tracer dye before evaluation in live cells. […] Choloroquine, a prototypical phospholipidosis-inducing agent, and bafilomycin A, an agent well known to induce the accumulation of autophagosomes, were evaluated using both Dye 1 and Lipid-Tox dye-based assays (FIG. 3). […] Cells stained with Lipid-Tox dye (solid triangles dash-dot line) were incubated in the presence of the fluorescent lipid for 24 hours during treatment with the drugs.

In data set [4] the test system is U2OS cells. The experiment in a line: Multiplexed CF-PE / Dye 1 / Hoechst 33342 microplate assay distinguishing phospholipidosis from autophagy pathway inhibition. In kind it is cell-based, human. As to conditions: 24 h with CF-PE medium and test compound. The procedure: For example, CF-PE was suspended in ethanol and diluted in the cell culture medium (McCoy's 5a modified medium, as described in Example 3) to give a solution (CF-PE medium) with final concentration of 50 μM (0.46% ethanol). […] medium was then sonicated and filtered through a […] filter. The prepared was then applied to U2OS cells growing in a 96-well microplate. After an equilibration period of 24 h, the cell culture medium was replaced with CF-PE medium with or without each test compound, and the cells were incubated at 37° C. for an additional 24 h. After incubation, the cells were rinsed with medium and further incubated with the same medium containing Dye 1 and Hoechst 33342 dye for an additional 15 min at 37° C. in 5% CO2 atmosphere.
Fluorescence signal was determined using a standard microplate reader, as described in example 4, except that CF-PE was additionally read at an excitation wavelength of 492 nm and an emission wavelength of 517 nm. […] Generalized cytotoxicity is evident as a substantial decrease in blue signal (≧30%) relative to vehicle-treated control cells.

Data set [5] concerns U2OS cells. Nature of the data set: Cell number per well by Hoechst 33342 fluorescence (generalized compound toxicity). Particulars: for Relative Hoechst Stain (intensity of Hoechst 33342 fluorescence of treated cells compared to the untreated control; number of cells remaining): 18 hours, single concentration per compound; for generalized cellular toxicity (loss of cells / decrease in Hoechst 33342 signal): greater than 30% decrease in cell number flagged as toxic.
Protocol: as §1, §2

Data set [6] has as its system U2OS cells. As to conditions: for Relative Hoechst Stain (intensity of Hoechst 33342 fluorescence of treated cells compared to the untreated control; number of cells remaining): human, 18 h.
Protocol: as §1, §2
The nature of data set [7]: pH dependence of Dye 1 fluorescence. Format: physicochemical. Particulars: pH range of 4.0 to 9.0.
For a further data set, the system named is cultured cells. As to conditions: high micromolar concentrations; cited from earlier work.
Data set [8] relates to U-2-OS human osteosarcoma cells. The experiment in a line: In vitro model of sphingolipidosis (Niemann-Pick mimic), microplate readout at 680 nm and 480 nm. Format: cell-based. The text has this: Stable cell lines derived from patients with Niemann-Pick disease can not be found in cell line repositories, such as American Type […] Collection (Manassas, Va.), and are not readily available to the research community. Consequently, an in vitro tissue culture model of sphingolipidosis was devised using 2R,3S,4E)-N-methyl-5-(4′pentylphenyl)-2-aminopent-4-ene-1,3-diol, designated SK1-I (BML-258), a potent, water soluble, isozyme-specific inhibitor of sphingosine kinase-1. […] U-2-OS human osteosarcoma cells were seeded at 22,500 cells/well, grown overnight, and then treated with a final concentration of 0, 2.5, 5, 10 or 20 μM of SK1-I for 18.5 hours. Next, the cells were briefly treated with compound 1 and the nuclear Hoechst 33342 dye, as described in Example 7. Fluorescence signal was read on a BioTek Synergy Mx microplate reader at excitation values of 340 and 540 nm and emission values of 480 and 680 nm. […] Fluorescence microscope-based examination of the wells confirmed that compound 1 staining of the cells was confined to the vacuolar structures. This in vitro model confirms the feasibility of using the assay for detecting aberrant accumulation of sphingolipids in cells, and by extension the feasibility of using the assay in monitoring inherited lysosomal storage diseases, such as Niemann-Pick disease.

Setting [9] is: Homo sapiens, 18 h, read-out: EC50 (Dye 1-based assay).

A word on the EC50: it is the midpoint of the concentration-response curve. As to `COc1ccc(CCN(C)CCCC(C#N)(c2ccc(OC)c(OC)c2)C(C)C)cc1OC` (centres unmarked) [verapamil], in data set [1], the “punctate pattern of cytoplasmic staining / levels of Dye 1 in the cells” value is on record as “increased in a dose-dependent manner”. Also, the EC50 in the data set with U2OS cells [2] (setting [9]) came out at 30 µM.

Take `CO/C1=C\C(C)=C\[C@@H](C)[C@@H](O)[C@@H](C)C/C(C)=C/C=C/[C@H](OC)[C@@H]([C@@H](C)[C@@H](O)[C@H](C)[C@@]2(O)C[C@@H](O)[C@H](C)[C@@H](C(C)C)O2)OC1=O` [Bafilomycin A1]: the “vacuolation / expansion of lysosomal compartment detected by Lipid-Tox assay” value in the data set on U2OS cells [3] is given as “only Dye 1 identified the increased vacuolation”. Further, the “green signal (CF-PE) relative to vehicle-treated controls” value with U2OS cells [4] (ex 492 nm, em 517 nm) is “low green signal”. The “red signal (Dye 1) relative to vehicle-treated controls” value with U2OS cells [4] (then Dye 1 15 min) is given as “increased red signal”. In the data set with U2OS cells [5], the “Relative Hoechst Stain (intensity of Hoechst 33342 fluorescence of treated cells compared to the untreated control; number of cells remaining)” value was determined as 58% and the “generalized cellular toxicity (loss of cells / decrease in Hoechst 33342 signal)” value is listed as “cytotoxic”. Further, in the data set on U2OS cells [2], the “Relative Lyso Stain (intensity of Dye 1 fluorescence of treated cells compared to the untreated control)” value (“Relative Lyso Stain” for short) is 176%; the “vacuolation / expansion of lysosomal compartment detected by Dye 1 assay” value is “increase vacuole number and volume”. In addition, the “vacuolation / expansion of lysosomal compartment detected by Dye 1 assay” value in the data set with U2OS cells [2] (listed as bafilomycin A) was “increased vacuolation”. Also, the EC50 in the data set on U2OS cells [2] (read-out: calculated EC50 value in Dye 1 based assay, 24 hours treatment, Dye 1 15 minutes post drug) is 0.003 µM.

Consider `CC(=O)c1c(O)c(C)c(O)c(Cc2c(O)c3c(c(C(=O)/C=C/c4ccccc4)c2O)OC(C)(C)C=C3)c1O` [Rottlerin], for which, in the data set on U2OS cells [5], the “Relative Hoechst Stain (intensity of Hoechst 33342 fluorescence of treated cells compared to the untreated control; number of cells remaining)” value came to 34% and the “generalized cellular toxicity (loss of cells / decrease in Hoechst 33342 signal)” value is on record as “generally cytotoxic”. In addition, the “generalized cellular toxicity (loss of cells / decrease in Hoechst 33342 signal)” value in the data set with U2OS cells [5] (listed as rottlerin) is “significant toxicity”. In the data set with U2OS cells [2], the “Relative Lyso Stain” value came to 187% and the “hit call in ICCB library screen (Dye 1 accumulation)” value (from here on “hit call in ICCB library screen”) is given as “false positive hit”.

On to `O=c1[nH]c2ccccc2n1C1CCN(CCCC(c2ccc(F)cc2)c2ccc(F)cc2)CC1` [pimozide], for which the “generalized cellular toxicity (loss of cells / decrease in Hoechst 33342 signal)” value with U2OS cells [6] is “toxic doses”.

Regarding `NC(=O)c1ccc(-c2nc(-c3ccc4c(c3)OCO4)c(-c3ccccn3)[nH]2)cc1` [SB-431542], in the data set on U2OS cells [6], the “Relative Hoechst Stain (intensity of Hoechst 33342 fluorescence of treated cells compared to the untreated control; number of cells remaining)” value was 101%. In the data set with U2OS cells [2], the “Relative Lyso Stain” value turned out to be 154% and the “hit call in ICCB library screen” value is “positive hits”.

Take `CN(C)CCCn1cc(C2=C(c3c[nH]c4ccccc34)C(=O)NC2=O)c2ccccc21` [GF-109203X]: in the data set on U2OS cells [5], the “Relative Hoechst Stain (intensity of Hoechst 33342 fluorescence of treated cells compared to the untreated control; number of cells remaining)” value is 87%. Further, the “Relative Lyso Stain” value in the data set with U2OS cells [2] is 197%.

As to `CN(C)CCNc1c(F)c(F)c(NCCN(C)C)c2c1C(=O)c1c(O)ccc(O)c1C2=O` [Dye 1, 1,4-bis(2-(dimethylamino)ethylamino)-2,3-difluoro-5,8-dihydroxyanthracene-9,10-dione], the “fluorescence emission intensity and wavelength maximum versus pH” value in data set [7] was “not significantly altered”.

On to `CC(C)NCC(O)COc1cccc2ccccc12` (centres unmarked) [Propranolol (S-), Propranolol], for which, in the data set with cultured cells, the “time to half maximum uptake” value is 4 to 10 min and the “time to steady state of cellular uptake” value was 40 to 60 min.

Consider `CC(C)(C)c1cc(C=C(C#N)C#N)cc(C(C)(C)C)c1O` [Tyrphostin 9], for which the “Relative Hoechst Stain (intensity of Hoechst 33342 fluorescence of treated cells compared to the untreated control; number of cells remaining)” value with U2OS cells [5] was 31%. In addition, the “Relative Lyso Stain” value in the data set on U2OS cells [2] is on record as 200%.

For `CCCCCc1ccc(/C=C/[C@H](O)[C@@H](CO)NC)cc1` [SK1-I], in [8] (U-2-OS, 0, 2.5, 5, 10 or 20 μM for 18.5 hours), the “emission values at 680 nm (accumulation of sphingolipids within the vacuolar compartment)” value was “Dose-dependent increases”. Moreover, the “cell viability (480 nm emission intensity from Hoechst dye)” value in data set [8] (U-2-OS, 0-20 μM for 18.5 hours) is recorded as “Cell viability was maintained under all treatment conditions”.

Take `CNCCC(Oc1ccc(C(F)(F)F)cc1)c1ccccc1` (centres unmarked) [fluoxetine]: the “punctate pattern of cytoplasmic staining / levels of Dye 1 in the cells” value in [1] was “increased in a dose-dependent manner”. Besides, in the data set with U2OS cells [6], the “generalized cellular toxicity (loss of cells / decrease in Hoechst 33342 signal)” value is listed as “toxic doses”.

Take `Cn1cc(C2=C(c3cn(CCCSC(=N)N)c4ccccc34)C(=O)NC2=O)c2ccccc21` [Ro 31-8220]: the “Relative Hoechst Stain (intensity of Hoechst 33342 fluorescence of treated cells compared to the untreated control; number of cells remaining)” value with U2OS cells [5] amounted to 89%. For the same molecule, in the data set on U2OS cells [2], the “Relative Lyso Stain” value is listed as 146% and the “hit call in ICCB library screen” value was “positive hit”.

With `CCCCOc1cc(CC2CNC(=O)N2)ccc1OC` (centres unmarked) [Ro 20-1724], the “Relative Hoechst Stain (intensity of Hoechst 33342 fluorescence of treated cells compared to the untreated control; number of cells remaining)” value in the data set on U2OS cells [6] was 53%. Moreover, the “Relative Lyso Stain” value with U2OS cells [2] came to 190%.

On to `CN(C)CCCN1c2ccccc2Sc2ccc(Cl)cc21` [chlorpromazine], for which the “punctate pattern of cytoplasmic staining / levels of Dye 1 in the cells” value in data set [1] is given as “increased in a dose-dependent manner”. For the same molecule, in the data set on U2OS cells [2] (setting [9]), the EC50 came out at 6 µM.
